{"source": "patent US20120225093A1", "about": "“Abrogating HIV-1 Infection via Drug-Induced Reactivation of Apoptosis” (UNIVERSITY OF MEDICINE AND DENTISTRY OF NEW JERSEY, priority 2010, published 2012)", "key": {"uninfected PBMCs": {"system": "uninfected PBMCs", "assay": "TUNEL apoptosis in uninfected PBMC cultures", "assay_type": "cell-based, human", "settings": "CPX 30 μM", "procedure": "Uninfected PBMCs were co-incubated with infected PBMC stock in 24-well microplates at 2 ml/well Medium B, at a 10:1 ratio of uninfected-to-infected cells, and a total cell number of 1×10^6. Cultures were maintained and assayed for 6 consecutive days. CPX or Agent P2 was added at the time of inoculation or 12 hr later. Leaving the cell layer undisturbed, half the medium in each well was replenished every day, with concurrent adjustment of compound concentration. On each day during the 6-day experiments, a set of wells was harvested: the cells were processed for determination of viability and apoptosis, and the cell-free supernatants were stored at −80° C. for p24 and viral RNA measurements. […]\nThe potential across the mitochondrial membrane of live cells was determined flow-cytometrically with the lipophilic cationic fluorochrome JC-1 (5,5′,6,6′-tetrachloro-1,1′,3,3′-tetraethylbenzimidazolcarbocyanine iodide) immediately after sample harvest (BD™ Mitoscreen Kit, BD Biosciences; San Diego, Calif.). DNA fragmentation was quantified flow-cytometrically, using a TUNEL (terminal deoxynucleotide transferase dUTP nick end-labeling) assay (APO-BRDU™; Phoenix Flow Systems; San Diego, Calif.) and a dual-color assay for annexin V binding and 7-AAD exclusion (Annexin V-PE 7-AAD Apoptosis Detection Kit I™; BD Biosciences Pharmingen, San Jose, Calif.). […]"}, "IFN-γ": {"system": "IFN-γ", "assay": "IFN-γ secretion by PBMC cultures (cytometric bead array)", "assay_type": "cell-based, human", "settings": "CPX added at inoculation or 12 hr later; Phase I", "procedure": "Uninfected PBMCs were co-incubated with infected PBMC stock in 24-well microplates at 2 ml/well Medium B, at a 10:1 ratio of uninfected-to-infected cells, and a total cell number of 1×10^6. Cultures were maintained and assayed for 6 consecutive days. CPX or Agent P2 was added at the time of inoculation or 12 hr later. Leaving the cell layer undisturbed, half the medium in each well was replenished every day, with concurrent adjustment of compound concentration. On each day during the 6-day experiments, a set of wells was harvested: the cells were processed for determination of viability and apoptosis, and the cell-free supernatants were stored at −80° C. for p24 and viral RNA measurements. Experiments were performed at least in duplicate and repeated at least twice.\np24 core antigen in the supernatant was quantified by ELISA (Retrotek HIV-1 p24™; ZeptoMetrix Corp.; Buffalo, N.Y.). HIV-1 RNA copy number in the supernatant was determined with a PCR-based and FDA-approved assay (Amplicor HIV-1 Monitor™; Roche Diagnostics Corp.; Indianapolis, Ind.). IFN-γ and IL-10 in the supernatant were determined by cytometric bead array (Human Th1/Th2 Cytokine Kit II™; BD Biosciences Pharmingen, San Jose, Calif.).\nTo further assess the cellular effects of CPX, the secretion of interferon (IFN)-γ and interleukin (IL)-10 was measured. […]"}}, "data": [{"smiles": "Cc1cc(C2CCCCC2)n(O)c(=O)c1", "note": "[CPX, 6-cyclohexyl-1-hydroxy-4-methylpyridin-2[1H]-one]", "values": [{"measurement": "apoptotic (TUNEL-positive) cells", "setting": "uninfected PBMCs; 144 hr", "result": "24.1% (±3.2%)"}, {"measurement": "change in proportion of TUNEL-positive PBMCs", "setting": "uninfected PBMCs; uninfected cultures", "result": "roughly doubled"}, {"measurement": "HIV-induced rise of IFN-γ", "setting": "IFN-γ", "result": "abolished the HIV-induced cytokine boost"}]}]}
